Converted amounts (≈) assume the structure as drawn.
Target: T1, α-glucosidase from Saccharomyces cerevisiae
T1 construct: gene MAL12
Test: pNPG hydrolysis, absorbance […] nm
Format: biochemical
Settings: substrate pNPG (50 uL of 3 mM in 200 uL), 37 °C

SMILES: O=c1c(O)c(-c2ccc(O)c(O)c2)oc2cc(O)cc(O)c12 [Quercetin]
- IC50: 2.98 ± 0.40 mg/L (≈ 9.86 µM)
